For test [1], the target named is Arginine Vasopressin Receptor 1A (AVPR1A) (Homo sapiens, UniProt P37288). The experiment in a line: SAFETYscan AVPR1A Calcium Flux. The class given is cell-based. The conditions noted are these: 10 μM HU-MCA-13, read-out: Maximal Response. Background: A change in cytosolic calcium serves as a functional read-out for many receptors and channels.
For test [2], the target named is Endothelin Receptor Type A (EDNRA) (Homo sapiens, UniProt P25101). Put plainly: SAFETYscan EDNRA Calcium Flux. The conditions noted are these: Agonist mode; 10 μM HU-MCA-13; read-out: Maximal Response. The class given is cell-based.
Chain of Endothelin Receptor Type A (EDNRA) (P25101 21-427): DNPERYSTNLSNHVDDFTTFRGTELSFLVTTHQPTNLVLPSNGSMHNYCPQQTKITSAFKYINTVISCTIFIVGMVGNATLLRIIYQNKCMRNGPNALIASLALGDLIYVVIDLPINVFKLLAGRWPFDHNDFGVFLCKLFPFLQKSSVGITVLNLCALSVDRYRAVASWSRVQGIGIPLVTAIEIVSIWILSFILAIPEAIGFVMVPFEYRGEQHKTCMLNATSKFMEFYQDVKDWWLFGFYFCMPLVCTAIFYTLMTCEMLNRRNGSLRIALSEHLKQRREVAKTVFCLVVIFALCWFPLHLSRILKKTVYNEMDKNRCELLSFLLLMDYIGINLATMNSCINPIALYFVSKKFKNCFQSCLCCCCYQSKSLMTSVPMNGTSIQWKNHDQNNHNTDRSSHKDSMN
Test [3] concerns the target T1, Monoamine oxidase type A (MAOA) (Homo sapiens, UniProt P21397).
T1 construct: DiscoverX (SAFETYscan contract panel)
Put plainly: SAFETYscan MAOA Enzymatic. The class given is biochemical. The conditions noted are these: Inhibitor mode; 10 μM HU-MCA-13; read-out: Maximal Response.

The target of test [4] is T2, Dopamine transporter (DAT) (Homo sapiens, UniProt Q01959).
T2 construct: DiscoverX (SAFETYscan contract panel)
T2 sequence (Q01959 whole entry): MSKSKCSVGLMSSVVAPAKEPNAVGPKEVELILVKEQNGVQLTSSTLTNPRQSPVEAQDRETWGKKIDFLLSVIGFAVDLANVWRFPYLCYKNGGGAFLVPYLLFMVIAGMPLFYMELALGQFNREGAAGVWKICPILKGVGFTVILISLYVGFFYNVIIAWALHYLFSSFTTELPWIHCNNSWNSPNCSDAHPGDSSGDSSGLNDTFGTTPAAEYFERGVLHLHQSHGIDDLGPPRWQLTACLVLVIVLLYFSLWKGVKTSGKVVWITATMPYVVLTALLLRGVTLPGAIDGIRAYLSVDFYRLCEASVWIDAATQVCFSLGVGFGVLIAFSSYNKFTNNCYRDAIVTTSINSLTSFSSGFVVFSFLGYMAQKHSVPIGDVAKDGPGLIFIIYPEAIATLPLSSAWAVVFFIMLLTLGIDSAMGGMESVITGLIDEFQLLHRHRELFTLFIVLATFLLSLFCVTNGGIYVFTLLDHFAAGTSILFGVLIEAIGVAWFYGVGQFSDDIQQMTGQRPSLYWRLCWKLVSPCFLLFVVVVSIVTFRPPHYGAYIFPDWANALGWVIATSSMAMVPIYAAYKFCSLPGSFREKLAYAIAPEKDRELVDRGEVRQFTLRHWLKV
Put plainly: SAFETYscan DAT Transporter. The class given is cell-based. The conditions noted are these: Blocker mode; 10 μM HU-MCA-13; read-out: Maximal Response.

Where two headings read alike, the source gives them in different places.

Chain of Arginine Vasopressin Receptor 1A (AVPR1A) (P37288 whole entry): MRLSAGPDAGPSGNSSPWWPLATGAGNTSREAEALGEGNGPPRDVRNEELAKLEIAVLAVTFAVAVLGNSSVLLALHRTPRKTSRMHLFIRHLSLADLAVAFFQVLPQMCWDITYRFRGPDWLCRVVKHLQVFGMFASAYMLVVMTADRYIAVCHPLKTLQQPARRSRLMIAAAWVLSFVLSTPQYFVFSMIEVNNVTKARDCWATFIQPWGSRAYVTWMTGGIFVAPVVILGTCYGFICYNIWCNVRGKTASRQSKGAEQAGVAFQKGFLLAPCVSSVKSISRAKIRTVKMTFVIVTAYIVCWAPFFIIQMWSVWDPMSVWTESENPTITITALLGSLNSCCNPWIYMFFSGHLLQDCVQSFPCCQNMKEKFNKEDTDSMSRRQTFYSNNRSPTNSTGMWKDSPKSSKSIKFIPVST
T1 sequence (P21397 whole entry): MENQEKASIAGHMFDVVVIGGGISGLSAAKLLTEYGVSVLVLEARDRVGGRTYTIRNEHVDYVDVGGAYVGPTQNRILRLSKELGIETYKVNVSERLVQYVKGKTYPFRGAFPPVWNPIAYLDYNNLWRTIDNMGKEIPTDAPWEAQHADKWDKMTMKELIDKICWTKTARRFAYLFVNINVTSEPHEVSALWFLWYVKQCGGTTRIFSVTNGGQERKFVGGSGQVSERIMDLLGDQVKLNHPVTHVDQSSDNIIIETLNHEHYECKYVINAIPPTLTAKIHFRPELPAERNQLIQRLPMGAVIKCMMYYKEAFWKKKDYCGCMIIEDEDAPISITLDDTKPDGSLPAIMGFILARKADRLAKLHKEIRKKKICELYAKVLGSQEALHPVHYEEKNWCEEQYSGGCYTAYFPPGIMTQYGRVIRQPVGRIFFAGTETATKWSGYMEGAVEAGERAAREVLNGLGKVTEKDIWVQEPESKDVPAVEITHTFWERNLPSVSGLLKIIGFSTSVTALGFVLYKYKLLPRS

On to `C=CCC1CCC[C@@H](CCC(=O)O)C1=C` (some centres unmarked) [Compound 13], for which the Emax in test [1] (Agonist mode) amounted to 0.29%; in test [1] (Antagonist mode) it was 0%; in test [2], 0%; in test [3], 1.86%; in test [4], 0%.
